Experimental findings from ChEMBL document CHEMBL1201862, “PubChem BioAssay data set” (2004) are described below.

Holding throughout (test): NCI anticancer screen, dose series, 48 h
Assay [1] concerns HL-60.
The test system of assay [2] is U-251.
Assay [3] deals with HOP-62.
The subject of assay [4] is HCT-116.
Assay [5] concerns CAKI-1.
For assay [6], the system named is DU-145.
Assay [7] deals with SNB-19.
The test system of assay [8] is MDA-MB-435.
Assay [9] has as its system SR.
For assay [10], the system named is M14.
Assay [11] concerns 786-0.
In assay [12] the test system is SN12C.
For assay [13], the system named is EKVX.
Assay [14] deals with MCF7.
Assay [15] deals with K562.
In assay [16] the test system is CCRF-CEM.
Assay [17] has as its system NCI-H23.
The test system of assay [18] is OVCAR-5.
The subject of assay [19] is UACC-257.
Assay [20] concerns Hs-578T.

Structures are written as SMILES.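 Dose response: 5 concentrations. Exposure: 48 h. Format: 96-well plates. Endpoint: linear interpolation; highest concentration if not reached. GI50 is the concentration that inhibits growth by half.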 Calls of active or inactive are those of the source. No stated cut-off is given here; in the data, active = GI50 up to about 1.1 µM and inactive = higher.

On to `CC[C@]1(O)C[C@H]2CN(CCc3c([nH]c4ccccc34)[C@@](C(=O)OC)(c3cc4c(cc3OC)N(C)[C@H]3[C@@](O)(C(=O)OC)[C@H](OC(C)=O)[C@]5(CC)C=CCN6CC[C@]43[C@@H]65)C2)C1`, for which the GI50 is 0.00042 µM (active) in assay [1]; 0.000715 µM (active) in assay [2]; 0.000832 µM (active) in assay [3]; 0.000481 µM (active) in [4]; 0.00706 µM (active) in [5]; 0.000395 µM (active) in [6]. The GI50 in [7] is 0.00115 µM (active); in assay [8], 0.000386 µM (active); in assay [9] it was 0.000425 µM (active); in [10] it was 0.000762 µM (active); in assay [11], 0.000964 µM (active); in assay [12], 0.00132 µM (active). Besides, the GI50 in [13] was 0.0259 µM (active); in assay [14], 0.00045 µM (active); in assay [15], 0.000508 µM (active); in assay [16], 0.000641 µM (active); in assay [17], 0.000678 µM (active).
In the case of `Cc1ccc2c(c1)CC1(C2=O)[C@H](c2ccccc2)C2C(=O)c3ccc(C)cc3C2[C@H]1c1ccccc1` (stereo partly drawn), the GI50 is > 100 µM (inactive) in assay [18]; 43.1 µM (inactive) in assay [1]; > 100 µM (inactive) in assay [2]; > 100 µM (inactive) in assay [3]; 24.9 µM (inactive) in assay [4]; > 100 µM (inactive) in [5]. Moreover, the GI50 in assay [6] was > 100 µM (inactive); in [7] it was > 100 µM (inactive); in assay [8], > 100 µM (inactive); in [9], 36.9 µM (inactive); in assay [10] it was > 100 µM (inactive); in [11], > 100 µM (inactive). Besides, the GI50 in assay [12] was > 100 µM (inactive); in [13], > 100 µM (inactive); in assay [14], 69.8 µM (inactive); in [15] it was 30.7 µM (inactive); in assay [19], > 100 µM (inactive); in assay [16] it was > 100 µM (inactive). The GI50 in [17] is > 100 µM (inactive).
Regarding `Cc1ccc(S(=O)(=O)N2c3ccccc3[C@H]3CCC=C[C@H]32)cc1`, the GI50 in assay [18] is 41.3 µM (inactive); in [1], 4.58 µM (inactive); in [2] it was 4.78 µM (inactive); in assay [3], 7.46 µM (inactive); in [4], 5.86 µM (inactive); in assay [5] it was 12.1 µM (inactive). Besides, the GI50 in assay [6] is 20.3 µM (inactive); in assay [7], 25.6 µM (inactive); in assay [20] it was 15.4 µM (inactive); in assay [9], 3.03 µM (inactive); in [10], 5.5 µM (inactive); in [11], 13.2 µM (inactive). For the same compound, the GI50 in [12] is 14.5 µM (inactive); in assay [13], 12.1 µM (inactive); in assay [14], 3.81 µM (inactive); in assay [15], 3.38 µM (inactive); in assay [19] it was 10.1 µM (inactive); in assay [16] it was 6.9 µM (inactive). Also, the GI50 in [17] is 8.28 µM (inactive).
Regarding `CCSC1=N/C(=C\c2ccccc2O)C(Nc2ccc(C)cc2)=N1`, the GI50 in assay [18] is > 100 µM (inactive); in [1], 39 µM (inactive); in assay [2], 41.9 µM (inactive); in assay [3], 78.2 µM (inactive); in [4] it was 39.1 µM (inactive); in assay [5], 86.1 µM (inactive). The GI50 in [6] is 90.2 µM (inactive); in [7], 45.8 µM (inactive); in assay [8] it was 34.4 µM (inactive); in assay [20] it was 56.1 µM (inactive); in [10], 48.8 µM (inactive); in assay [11], 91.6 µM (inactive). The GI50 was 66.7 µM (inactive) in [12]; > 100 µM (inactive) in assay [13]; 28.2 µM (inactive) in assay [15]; 99.1 µM (inactive) in [19]; 31 µM (inactive) in assay [16]; 56 µM (inactive) in [17].
In the case of `Cc1ccc2c(O)cc(-c3sc4ccccc4c3C)nc2n1`, the GI50 in assay [18] was 34 µM (inactive); in [3], 25.1 µM (inactive); in assay [4] it was 20.1 µM (inactive); in assay [5], 21.6 µM (inactive); in assay [6], 22.9 µM (inactive); in assay [7], 29.9 µM (inactive). Besides, the GI50 in [20] was 19.9 µM (inactive); in assay [10], 17.5 µM (inactive); in assay [11] it was 20.5 µM (inactive); in assay [12], 29 µM (inactive); in assay [13], 25.5 µM (inactive); in [14] it was 41.7 µM (inactive). Further, the values for the GI50 in [15], in assay [19] and in [16] were 27.1 µM (inactive), 32.3 µM (inactive) and 23.9 µM (inactive), respectively.
On to `O=c1[nH]cnc2cccc(Cl)c12`, for which the GI50 in [18], in assay [1], in assay [2], in assay [3], in assay [4] and in assay [5] was > 100 µM (inactive) each time. For the same compound, the GI50 in assay [6], in assay [7], in [20], in assay [9], in [10] and in assay [11] was > 100 µM (inactive) throughout. Also, the GI50 in [12], in assay [13], in assay [14], in assay [15], in [19] and in assay [16] was > 100 µM (inactive) throughout. The GI50 in assay [17] was > 100 µM (inactive).
As to `N=c1nc(N)nc(N)n1-c1ccc(S(N)(=O)=O)cc1`, the GI50 in [18], in assay [1], in [2], in assay [3], in assay [4] and in assay [5] was > 100 µM (inactive) each time. The GI50 in [6], in [7], in [8], in assay [9], in [10] and in [11] was > 100 µM (inactive) in each case. Also, the GI50 in [12], in assay [13], in [15], in assay [19], in assay [16] and in assay [17] was > 100 µM (inactive) each time.
`CC(=O)N1C(NN(C)C)CCN1c1ccccc1` (stereo not drawn): the GI50 in assay [1], in assay [3], in assay [5], in [6], in [8] and in assay [9] was > 10 µM (inactive) throughout. Moreover, the GI50 in assay [10], in assay [11], in assay [12], in assay [13], in assay [14] and in assay [15] was > 10 µM (inactive) in each case. Further, the GI50 in [19], in assay [16] and in assay [17] was > 10 µM (inactive) each time.
For the compound `O=C1C(Cl)C(c2cc(Br)ccc2O)N1n1cnc2ccccc2c1=O` (stereo not drawn), the GI50 in assay [18] was 28.5 µM (inactive); in assay [1] it was 1.72 µM (inactive); in [2], 10.7 µM (inactive); in [3] it was 13.7 µM (inactive); in [4] it was 5.96 µM (inactive); in assay [5], 21.3 µM (inactive). In addition, the GI50 was 14.5 µM (inactive) in assay [7]; 2.74 µM (inactive) in [9]; 11.3 µM (inactive) in assay [10]; 17.3 µM (inactive) in assay [11]; 20 µM (inactive) in assay [12]; 3.4 µM (inactive) in assay [13]. Moreover, the GI50 was 5.27 µM (inactive) in assay [15], 10.5 µM (inactive) in [19], 3.28 µM (inactive) in assay [16] and 16.5 µM (inactive) in assay [17].
With `O=C(O)CCCOc1cc(-c2ccccc2F)nc2cc3c(cc12)OCO3`, the GI50 in assay [18] was 8.32 µM (inactive); in assay [2] it was 5.46 µM (inactive); in [3], 4.01 µM (inactive); in [5], 9.64 µM (inactive); in assay [6] it was 5.75 µM (inactive); in assay [8], 3.18 µM (inactive). For the same compound, the GI50 in assay [9] was 3.93 µM (inactive); in assay [10] it was 3.73 µM (inactive); in assay [11] it was 6.38 µM (inactive); in assay [12], 19.3 µM (inactive); in assay [13] it was > 100 µM (inactive); in assay [14] it was 5.35 µM (inactive). The GI50 in assay [16] is 3.27 µM (inactive); in assay [17], 44.9 µM (inactive).
On to `COC(=O)/C=C(\C)CC(O)/C=C(\C)CCC=C(C)C` (stereo not drawn), for which the GI50 is > 100 µM (inactive) in assay [18]; 17.4 µM (inactive) in assay [1]; 42.7 µM (inactive) in assay [2]; > 100 µM (inactive) in assay [3]; 40.5 µM (inactive) in [4]; 92.7 µM (inactive) in assay [5]. Also, the GI50 is > 100 µM (inactive) in assay [7]; 80 µM (inactive) in [20]; 23 µM (inactive) in assay [9]; 38.5 µM (inactive) in assay [10]; 80.5 µM (inactive) in assay [11]; > 100 µM (inactive) in assay [12]. For the same compound, the GI50 in assay [13] was 46.1 µM (inactive); in assay [14], 31.4 µM (inactive); in assay [15] it was 32.1 µM (inactive); in assay [19], 47.4 µM (inactive); in [16], 30.8 µM (inactive); in [17], 26.9 µM (inactive).
